# Entries after “also recorded” stand apart in the source; their conditions may differ.
# Target: Jack bean urease (Canavalia ensiformis, UniProt P07374)
# Assay: biochemical
# Details: not given
# Experimental: (§1) Reaction mixtures comprising 25 μL of enzyme (Jack bean and Bacillus pasteurii ureases) solution and 55 μL of buffers containing urea (2–24 mM for jack bean and Bacillus pasteurii ureases) were incubated with 5 μL of test compounds at 30°C for 4.15 min in 96-well plates. The increasing absorbance at 560 nm was measured after 10 min, using a microplate reader (Molecular Devices, USA). All reactions were performed in triplicate in a final volume of […]. The results (change in absorbance per min.) were processed by using SoftMax Pro software (Molecular Devices, USA). All the assays were performed at pH 6.8 (3 mM sodium phosphate buffer) and 7 μg of phenol red per mL as indicator [10]. Percentage inhibitions were calculated from the formula 100 − (ODtestwell/ODcontrol) × 100. Thiourea was used as the standard inhibitor of urease.
# (§2) The concentration of tested compounds that inhibited the hydrolysis of substrates (Jack bean urease and Bacillus pasteurii ureases) by 50% (IC50) was determined by monitoring the effect of various concentrations of the compounds in the assays on the inhibition values. The IC50 (inhibitor conc. that inhibits 50% activity of both enzymes) values were then calculated using the EZ-Fit Enzyme Kinetics program (Perrella Scientific Inc., Amherst, USA).
# (§3) Dissociation constant/inhibition constant (K i) were determined by the interpretation of Dixon plot. Lineweaver-Burk plot and their secondary replots using initial velocities obtained over a substrate concentration range between 2.0 and 24 mM urea for J.B. and B.P. ureases, respectively. Nonlinear regression equations were used to determine the values of K I, K m, and V max in the Lineweaver-Burk plot and Dixon plots. The K i values dissociation constant/inhibition constant of J.B. urease-inhibitor or B.P. urease-inhibitor complex into free J.B. urease or B.P. urease and inhibitor was determined graphically by Dixon plot and Lineweaver-Burk plots.
# Sequence of Jack bean urease (P07374 whole entry, looked up): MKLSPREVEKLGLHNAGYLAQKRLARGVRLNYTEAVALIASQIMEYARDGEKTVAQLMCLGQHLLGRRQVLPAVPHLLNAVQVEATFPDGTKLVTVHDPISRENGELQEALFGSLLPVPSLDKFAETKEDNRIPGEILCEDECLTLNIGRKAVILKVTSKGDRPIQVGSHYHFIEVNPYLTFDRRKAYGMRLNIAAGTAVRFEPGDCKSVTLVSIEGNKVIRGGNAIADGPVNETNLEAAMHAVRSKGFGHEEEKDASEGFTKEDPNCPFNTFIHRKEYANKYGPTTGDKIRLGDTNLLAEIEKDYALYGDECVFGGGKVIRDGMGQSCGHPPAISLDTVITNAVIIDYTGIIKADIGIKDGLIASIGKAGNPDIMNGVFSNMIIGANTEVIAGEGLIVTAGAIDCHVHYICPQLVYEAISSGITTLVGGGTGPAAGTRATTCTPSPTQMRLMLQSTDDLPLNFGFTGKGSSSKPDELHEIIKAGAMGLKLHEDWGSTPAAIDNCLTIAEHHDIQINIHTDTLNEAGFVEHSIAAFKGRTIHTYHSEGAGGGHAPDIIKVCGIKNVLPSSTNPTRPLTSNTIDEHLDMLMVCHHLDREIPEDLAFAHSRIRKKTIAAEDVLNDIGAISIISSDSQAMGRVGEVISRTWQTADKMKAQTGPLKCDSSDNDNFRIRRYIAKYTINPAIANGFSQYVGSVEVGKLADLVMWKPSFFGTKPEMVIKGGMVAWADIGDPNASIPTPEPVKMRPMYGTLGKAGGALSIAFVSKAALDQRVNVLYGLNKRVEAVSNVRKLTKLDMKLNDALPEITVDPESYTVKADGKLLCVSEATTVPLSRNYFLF
row,SMILES,Ki [µM]
1,CC(c1c(O)c2ccccc2oc1=O)c1c(O)c2ccccc2oc1=O [compound 3],59.4 ± 0.1
2,O=c1oc2ccccc2c(O)c1C(c1cc[nH]c1)c1c(O)c2ccccc2oc1=O [compound 5],53.3 ± 0.4
3,C/C=C/C(c1c(O)c2ccccc2oc1=O)c1c(O)c2ccccc2oc1=O [compound 4],65.9
4,O=c1oc2ccccc2c(O)c1C(c1cccnc1)c1c(O)c2ccccc2oc1=O [compound 10],68 ± 0.1
5,O=c1oc2ccccc2c(O)c1Cc1c(O)c2ccccc2oc1=O [compound 7],15 ± 0.1

# Same assay, conditions: Urease (JB)
row,SMILES,Type of inhibition
1,CC(c1c(O)c2ccccc2oc1=O)c1c(O)c2ccccc2oc1=O [compound 3],Competitive
2,O=c1oc2ccccc2c(O)c1C(c1cc[nH]c1)c1c(O)c2ccccc2oc1=O [compound 5],Competitive
3,C/C=C/C(c1c(O)c2ccccc2oc1=O)c1c(O)c2ccccc2oc1=O [compound 4],Competitive
4,O=c1oc2ccccc2c(O)c1C(c1cccnc1)c1c(O)c2ccccc2oc1=O [compound 10],Competitive
5,O=c1oc2ccccc2c(O)c1Cc1c(O)c2ccccc2oc1=O [compound 7],Competitive

# Same assay, conditions: Urease (JB); Km without inhibitor 2.5 mM
row,SMILES,Kmapp [mM]
1,CC(c1c(O)c2ccccc2oc1=O)c1c(O)c2ccccc2oc1=O [compound 3],8.3
2,O=c1oc2ccccc2c(O)c1C(c1cc[nH]c1)c1c(O)c2ccccc2oc1=O [compound 5],7.8
3,C/C=C/C(c1c(O)c2ccccc2oc1=O)c1c(O)c2ccccc2oc1=O [compound 4],9.1
4,O=c1oc2ccccc2c(O)c1C(c1cccnc1)c1c(O)c2ccccc2oc1=O [compound 10],10.6
5,O=c1oc2ccccc2c(O)c1Cc1c(O)c2ccccc2oc1=O [compound 7],7.6

# Same assay, conditions: Urease (JB); Vmax without inhibitor 105
row,SMILES,Vmaxapp
1,CC(c1c(O)c2ccccc2oc1=O)c1c(O)c2ccccc2oc1=O [compound 3],108
2,O=c1oc2ccccc2c(O)c1C(c1cc[nH]c1)c1c(O)c2ccccc2oc1=O [compound 5],103
3,C/C=C/C(c1c(O)c2ccccc2oc1=O)c1c(O)c2ccccc2oc1=O [compound 4],105
4,O=c1oc2ccccc2c(O)c1C(c1cccnc1)c1c(O)c2ccccc2oc1=O [compound 10],105
5,O=c1oc2ccccc2c(O)c1Cc1c(O)c2ccccc2oc1=O [compound 7],102

# Target: Bacillus pasteurii urease (Sporosarcina pasteurii, UniProt P41020)
# Assay: Urease assay and inhibition kinetics, Bacillus pasteurii urease
# Type: biochemical
# Parameters: Vmaxapp: unit not given here
# Details: not given
# Experimental: as §1, §2, §3
# Sequence of Bacillus pasteurii urease (P41021 whole entry): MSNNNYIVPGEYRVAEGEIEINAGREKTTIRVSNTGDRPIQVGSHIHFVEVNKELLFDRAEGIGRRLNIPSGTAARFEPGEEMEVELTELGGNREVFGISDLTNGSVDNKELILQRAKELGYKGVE
# Sequence of Bacillus pasteurii urease (P41022 whole entry, further chain): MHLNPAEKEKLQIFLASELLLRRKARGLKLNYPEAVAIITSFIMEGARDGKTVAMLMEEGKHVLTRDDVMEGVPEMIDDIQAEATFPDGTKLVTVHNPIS
# Sequence of Bacillus pasteurii urease (P41020 whole entry): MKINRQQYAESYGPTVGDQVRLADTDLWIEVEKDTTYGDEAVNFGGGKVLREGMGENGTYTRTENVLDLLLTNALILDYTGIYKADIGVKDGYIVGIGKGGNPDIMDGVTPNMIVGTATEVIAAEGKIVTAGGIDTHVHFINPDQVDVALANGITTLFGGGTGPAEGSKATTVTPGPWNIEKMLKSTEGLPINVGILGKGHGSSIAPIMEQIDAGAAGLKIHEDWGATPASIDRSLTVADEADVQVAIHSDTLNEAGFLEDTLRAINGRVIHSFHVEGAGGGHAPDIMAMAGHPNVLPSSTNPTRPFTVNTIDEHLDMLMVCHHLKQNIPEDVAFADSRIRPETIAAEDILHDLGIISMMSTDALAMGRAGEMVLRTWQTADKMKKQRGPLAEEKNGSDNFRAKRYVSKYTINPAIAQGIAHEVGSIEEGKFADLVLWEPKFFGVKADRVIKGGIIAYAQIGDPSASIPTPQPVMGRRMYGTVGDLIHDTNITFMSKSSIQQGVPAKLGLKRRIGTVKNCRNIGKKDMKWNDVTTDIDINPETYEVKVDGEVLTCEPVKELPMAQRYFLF
row,SMILES,Ki [µM]
1,O=c1oc2ccccc2c(O)c1Cc1c(O)c2ccccc2oc1=O [compound 7],13.3 ± 0.2

# Same assay, conditions: Urease (BP)
row,SMILES,Type of inhibition
1,CC(c1c(O)c2ccccc2oc1=O)c1c(O)c2ccccc2oc1=O [compound 3],Uncompetitive
2,O=c1oc2ccccc2c(O)c1C(c1cc[nH]c1)c1c(O)c2ccccc2oc1=O [compound 5],Uncompetitive
3,C/C=C/C(c1c(O)c2ccccc2oc1=O)c1c(O)c2ccccc2oc1=O [compound 4],Uncompetitive
4,O=c1oc2ccccc2c(O)c1C(c1cccnc1)c1c(O)c2ccccc2oc1=O [compound 10],competitively
5,O=c1oc2ccccc2c(O)c1Cc1c(O)c2ccccc2oc1=O [compound 7],competitively; also recorded: Competitive

# Same assay, conditions: Urease (BP); Dixon plot and secondary Lineweaver-Burk plot; pH 6.8, 30°C; read-out: Ki (µM) ± SEM
row,SMILES,Ki [µM]
1,CC(c1c(O)c2ccccc2oc1=O)c1c(O)c2ccccc2oc1=O [compound 3],53 ± 0.01
2,O=c1oc2ccccc2c(O)c1C(c1cc[nH]c1)c1c(O)c2ccccc2oc1=O [compound 5],68.1 ± 0.3
3,C/C=C/C(c1c(O)c2ccccc2oc1=O)c1c(O)c2ccccc2oc1=O [compound 4],48.3 ± 0.01
4,O=c1oc2ccccc2c(O)c1C(c1cccnc1)c1c(O)c2ccccc2oc1=O [compound 10],63.6 ± 0.2

# Same assay, conditions: Urease (BP); Km without inhibitor 5.1 mM
row,SMILES,Kmapp [mM]
1,CC(c1c(O)c2ccccc2oc1=O)c1c(O)c2ccccc2oc1=O [compound 3],4.0
2,O=c1oc2ccccc2c(O)c1C(c1cc[nH]c1)c1c(O)c2ccccc2oc1=O [compound 5],3.9
3,C/C=C/C(c1c(O)c2ccccc2oc1=O)c1c(O)c2ccccc2oc1=O [compound 4],3.8
4,O=c1oc2ccccc2c(O)c1C(c1cccnc1)c1c(O)c2ccccc2oc1=O [compound 10],10.3
5,O=c1oc2ccccc2c(O)c1Cc1c(O)c2ccccc2oc1=O [compound 7],9.9

# Same assay, conditions: Urease (BP); Vmax without inhibitor 160
row,SMILES,Vmaxapp
1,CC(c1c(O)c2ccccc2oc1=O)c1c(O)c2ccccc2oc1=O [compound 3],115.3
2,O=c1oc2ccccc2c(O)c1C(c1cc[nH]c1)c1c(O)c2ccccc2oc1=O [compound 5],93.7
3,C/C=C/C(c1c(O)c2ccccc2oc1=O)c1c(O)c2ccccc2oc1=O [compound 4],101.0
4,O=c1oc2ccccc2c(O)c1Cc1c(O)c2ccccc2oc1=O [compound 7],162.5

# Same assay, conditions: comparison of potency against both ureases
row,SMILES,selectivity between B.P. urease and J.B. urease
1,O=c1oc2ccccc2c(O)c1C(c1cc[nH]c1)c1c(O)c2ccccc2oc1=O [compound 5],selective for J.B. uraese

# System: Lemna aequinoctialis Welv.
# Assay: Lemna phytotoxicity assay
# Details: conc. of compound 10 μg/mL; seven days
# Experimental: The assay was performed according to the modified protocol of Bremner. […] Sterilized conical flasks were inoculated with compounds with desired concentrations prepared from the stock solution and allowed to evaporate overnight. Each flask was inoculated with 20 mL of sterilized E-medium and ten Lemna aequinoctialis Welv. each containing a rosette of three fronds. Other flasks were supplemented with methanol serving as negative control and reference inhibitor, that is, phosphoroamide (a urease inhibitor already in commercial use) serving as positive control. The treatments were replicated three times and the flasks incubated at 30°C Fisons Fi-Totron 600 H growth cabinet for seven days, 9000 lux light intensity, 56 ± 10 rh (relative humidity), and 12 h day length. Growth of Lemna aequinocitalis in compound containing flask was determined by counting the number of fronds per dose and growth inhibition calculated with reference to negative control.
row,SMILES,Lemna Welv. phytotoxicity (growth inhibition)
1,CC(c1c(O)c2ccccc2oc1=O)c1c(O)c2ccccc2oc1=O [compound 3],6.4
2,O=c1oc2ccccc2c(O)c1C(c1cc[nH]c1)c1c(O)c2ccccc2oc1=O [compound 5],9.00
3,C/C=C/C(c1c(O)c2ccccc2oc1=O)c1c(O)c2ccccc2oc1=O [compound 4],38.23
4,O=c1oc2ccccc2c(O)c1C(c1cccnc1)c1c(O)c2ccccc2oc1=O [compound 10],23.8

# Same assay, conditions: conc. of compound 100 μg/mL; seven days
row,SMILES,Lemna Welv. phytotoxicity (growth inhibition)
1,CC(c1c(O)c2ccccc2oc1=O)c1c(O)c2ccccc2oc1=O [compound 3],22.5
2,O=c1oc2ccccc2c(O)c1C(c1cc[nH]c1)c1c(O)c2ccccc2oc1=O [compound 5],25.00
3,C/C=C/C(c1c(O)c2ccccc2oc1=O)c1c(O)c2ccccc2oc1=O [compound 4],100
4,O=c1oc2ccccc2c(O)c1C(c1cccnc1)c1c(O)c2ccccc2oc1=O [compound 10],47.6

# Same assay, conditions: conc. of compound 1000 μg/mL; seven days
row,SMILES,Lemna Welv. phytotoxicity (growth inhibition)
1,CC(c1c(O)c2ccccc2oc1=O)c1c(O)c2ccccc2oc1=O [compound 3],54.8
2,O=c1oc2ccccc2c(O)c1C(c1cc[nH]c1)c1c(O)c2ccccc2oc1=O [compound 5],61.4
3,O=c1oc2ccccc2c(O)c1C(c1cccnc1)c1c(O)c2ccccc2oc1=O [compound 10],57.14

# System: not listed separately
# Assay: Viability of human neutrophils (WST-1)
# Type: cell-based
# Details: isolated human neutrophils; human neutrophils 1 × 10^7 cells/mL; conc. 200 µg/mL
# Experimental: Heparinized fresh venous blood was drawn from healthy volunteers in a local blood bank and the neutrophils were isolated by developed method of McLaughlin et al.. 45 The whole blood was mixed with Ficoll-Paque (Pharmacia Biotech Amersham, Uppsala). After sedimentation the unwanted red blood cells (RBCs) were layered as a buffy coat on the cushion of Ficoll (3.0 mL). It was then centrifuged for 30 min. at 1500 rpm, and supernatant was discarded. Further treated with hypotonic ammonium chloride solution (0.83%) to lyse RBCs. The preparation was then centrifuged and the neutrophils were washed with Modified Hank's Solution (MHS) and resuspended at a concentration of 1 × 10^7 cells/mL.
# Isolated human neutrophils (1 × 10^7 cells/mL) were incubated first with test compounds for 30 min., and then after the addition of 0.25 mM WST-1 (Dojindo Laboratories Kumamoto, Japan) in water bath shaker at 37°C [18, 19]. After 3 hrs incubation, change in the absorbance was measured at 450 nm in 96-well plate by using microplate reader Spectra MAX 340 (Molecular Devices, CA, USA). The OD is the mean of the five experimental replicates. The percentage (%) cell viability was calculated by using the following formula: (1) Percentage (%) viability of cells =[…].
row,SMILES,viability at 200 µg/mL [%]
1,CC(c1c(O)c2ccccc2oc1=O)c1c(O)c2ccccc2oc1=O [compound 3],100 ± 1
2,O=c1oc2ccccc2c(O)c1C(c1cc[nH]c1)c1c(O)c2ccccc2oc1=O [compound 5],100 ± 0.5
3,C/C=C/C(c1c(O)c2ccccc2oc1=O)c1c(O)c2ccccc2oc1=O [compound 4],13.2 ± 4.2
4,O=c1oc2ccccc2c(O)c1C(c1cccnc1)c1c(O)c2ccccc2oc1=O [compound 10],95.4 ± 5.2
5,O=c1oc2ccccc2c(O)c1Cc1c(O)c2ccccc2oc1=O [compound 7],100 ± 4.3

# From article PMC4176650 (BioMed Research International, 2014)
